Source: patent US20260250325A1, “Antiviral Polypeptide Membrane Fusion Inhibitor, and Preparation Method and Application Thereof” (priority 2025, published 2026)
Where two headings read alike, the source gives them in different places. Where a SMILES comes first, the peptide text is derived from it. [ ]: non-standard residue; d: D form. The star is where a group is joined. ξ: configuration not given here. Succinyl(4-O-cholesteryl) = CC(C)CCC[C@@H](C)[C@H]1CC[C@H]2[C@@H]3CC=C4C[C@@H](OC(=O)CCC(=O)*)CC[C@]4(C)[C@H]3CC[C@]12C; X1 = CC(C)CCCC(C)C1CCC2C3CC=C4CC(OC(=O)CCC(=O)*)CCC4(C)C3CCC12C; ξD = NC(CC(=O)O)C(=O)O

How the values were obtained:
RSV A long virus strain = assay type: cell-based
Experimental: In this embodiment, an RSV-A long virus strain was used as an infection virus in the present disclosure. The anti-RSV activity of the synthesized polypeptide was determined through CPE detection.
The inhibitory activity of the compounds of Table 1-1-Table 1-5, positive polypeptide in Table 1-11, and positive control T-118 against the RSV-A long virus strain was detected.
(§1) Human Epithelial Pharyngeal Carcinoma Cells (HEp-2) were from the American Type Culture Collection (ATCC), with a catalog number CCL-23. The cells were cultured in a DMEM culture solution in which 10% fetal bovine serum, 1% sodium pyruvate, 1% nonessential amino acids, 2 mM glutamine, 100 U/mL penicillin, and 100 μg/mL streptomycin were added. The RSV A long virus strain was from the ATCC, with a catalog number VR-26.
This study used a plaque reduction experiment to detect the in-vitro activity of a test sample against the RSV A long virus strain. The test sample and a control compound were tested at 8 concentrations in duplicated wells. The HEp-2 cells were digested with trypsin and then diluted to a concentration of 300,000 cells per milliliter by using an experimental culture solution. The diluted cells were added to a 96-well cell test board, with 100 μL per well, corresponding to 30000 cells per well. The cells were cultured overnight in a 37° C. incubator with 5% CO2. On the second day, the test sample was diluted in an experimental culture medium at a fold ratio. The sample diluted at a fold ratio and an equal volume of virus (100 PFU per well) were well mixed and incubated at 37° C. in 5% CO2 for 1 h. Then, the culture solution in the 96-well cell test board was discarded, the sample virus mixed solution (200 μL) was added to the 96-well cell culture plate, and incubated at 37° C. in 5% CO2 for 2 hours. After 2 h, the sample virus mixed solution was discarded, and 200 μL of maintenance culture medium containing 0.8% CMC and the corresponding concentration of the test sample was added. A cell control (cells, without compound treatment or viral infection) and a viral control (cell infection virus, without compound treatment) were set. The cells were cultured for 1 day in the 37° C. incubator with 5% CO2. One day after viral infection, the culture medium was discarded, the cells were fixed with 4% paraformaldehyde, and then permeabilization was performed with 0.5% Triton X-100. After the plate was washed with DPBS, an RSV-specific antibody (RSV antibody, diluted 1:3000) was added and incubated at 37° C. for 1 h. Then, a secondary antibody (donkey anti-goat IgG, diluted 1:500) and incubated at 37° C. for 1 h. The secondary antibody was discarded, a TrueBlue solution was added, dyeing was performed for 10 min; and the plate was washed with running water and then air-dried, and the number of spots in each well was counted by using a microplate imaging counter. Raw data was used for calculating the antiviral activity of the samples.
(§2) The raw data for plaque counts and cell viability tests were used for analyzing the antiviral activity and cytotoxicity of the test samples, respectively. A calculation formula was shown as follows.
% inhibition rate=100−(sample value-cell control average value)/(virus control average value-cell control average value)×100%
(§3) Non-linear fitting analysis was performed on the inhibition rate of the sample by using GraphPad Prism (version 10), so as to calculate the IC50 and CC50 values for the sample.
IC50: in an in-vitro antiviral activity experiment, IC50 represented an inhibition ability indicator of a compound to be tested against the Hep-2 cells infected by the RSV A long virus strain.

[1] = Cytotoxicity test in HEp-2 cells (CCK8 cell viability); assay type: cell-based; conditions: human
Experimental: as §1
A cytotoxicity test and an antiviral test were performed in parallel. The HEp-2 cells were inoculated in the microplate at a density of 30,000 cells per well, and cultured overnight in the 37° C. incubator with 5% CO2. On the next day, the diluted test sample was added. The cell control (cells, without compound treatment) and a culture solution control (culture solution only, without cell or compound treatment) were set. A final concentration of DMSO in the culture solution was 0.5%. The cells were cultured for 1 day in the 37° C. incubator with 5% CO2. Cell viability was detected by using a cell viability detection kit CCK8.
as §2
cell survival rate=(sample value-culture medium control average value)/(cell control average value-culture medium control average value)×100
as §3
CC50: in the in-vitro antiviral activity experiment, CC50 was used to measure the toxicity of the compound to be tested to the Hep-2 cells. To be precise, when the compound to be tested was at a specific concentration, 50% of the Hep-2 cells was caused to die, and this concentration was defined as the CC50. A fitting formula was log (inhibitor) vs. response-Variable slope (four parameters).

[2] = RSV A long virus strain, HEp-2 cells, plaque reduction, 1 day, read-out: IC50
[3] = HEp-2 cells, CCK8, 1 day, read-out: CC50

| Compound | IC50 (RSV A long virus strain) | CC50 at 1 day [1] | IC50 (RSV A long virus strain; [2]) | CC50 at 1 day [1, 3] |
| --- | --- | --- | --- | --- |
| Ac-SLEQVNKKIEQSLESLKKSDKINQSLEEVNKSDELLEAAAKK-NH2 [Compound 49] | > 8 µM | > 8 µM | – | – |
| Ac-FDASISQVNEKINQSLAFIRKSDELLHNVNAGKSTTEAAAKK(X1)-NH2 [Positive polypeptide 7, reference compound] | – | – | > 0.3 µM | > 10 µM |
| CC[C@H](C)[C@H](NC(=O)[C@H](Cc1ccccc1)NC(=O)[C@H](C)NC(=O)[C@H](CC(C)C)NC(=O)[C@H](CO)NC(=O)[C@H](CCC(N)=O)NC(=O)[C@H](CC(N)=O)NC(=O)[C@@H](NC(=O)[C@H](CCCCN)NC(=O)[C@H](CCC(=O)O)NC(=O)[C@H](CC(N)=O)NC(=O)[C@@H](NC(=O)[C@H](CCC(N)=O)NC(=O)[C@H](CCC(=O)O)NC(=O)[C@H](CC(=O)O)NC(=O)[C@H](CO)NC(C)=O)C(C)C)[C@@H](C)CC)C(=O)N[C@@H](CCCNC(=N)N)C(=O)N[C@@H](CCCNC(=N)N)C(=O)N[C@H](C(=O)N[C@@H](CCCNC(=N)N)C(=O)N[C@@H](CCCCN)C(=O)N[C@@H](CC(C)C)C(=O)N[C@@H](CC(C)C)C(=O)N[C@@H](Cc1c[nH]cn1)C(=O)N[C@@H](CC(N)=O)C(=O)N[C@@H](CCC(=O)O)C(=O)N[C@@H](C)C(=O)N[C@@H](C)C(=O)N[C@@H](C)C(=O)N[C@@H](CCCCN)C(=O)N[C@@H](CCCCNC(=O)CCC(=O)OC1CCC2(C)C(=CCC3C2CCC2(C)C(C(C)CCCC(C)C)CCC32)C1)C(N)=O)[C@@H](C)CC (some centres unmarked) [Compound 31] (Ac-SDEQVNEKINQSLAFIRRIRKLLHNEAAAKK(X1)-NH2) | – | – | 2.22 µM | > 8 µM |
| CC[C@H](C)[C@H](NC(C)=O)C(=O)N[C@@H](CCC(=O)O)C(=O)N[C@@H](CCC(N)=O)C(=O)N[C@H](C(=O)N[C@@H](CC(N)=O)C(=O)N[C@@H](CCCCN)C(=O)N[C@@H](CCCCN)C(=O)N[C@H](C(=O)N[C@@H](CCC(=O)O)C(=O)N[C@@H](CCC(N)=O)C(=O)N[C@@H](CO)C(=O)N[C@@H](CC(C)C)C(=O)N[C@@H](CCCCN)C(=O)N[C@@H](Cc1ccccc1)C(=O)N[C@H](C(=O)N[C@@H](CCC(=O)O)C(=O)N[C@@H](CCCCN)C(=O)N[C@@H](CO)C(=O)N[C@@H](CC(=O)O)C(=O)N[C@@H](CCCCN)C(=O)N[C@@H](CC(C)C)C(=O)N[C@@H](CC(C)C)C(=O)N[C@@H](CCC(=O)O)C(=O)N[C@@H](CC(N)=O)C(=O)N[C@H](C(=O)N[C@@H](CC(N)=O)C(=O)N[C@@H](CCCCN)C(=O)NCC(=O)N[C@@H](CCCCN)C(=O)N[C@@H](CS)C(=O)N[C@@H](CCC(=O)O)C(=O)N[C@@H](C)C(=O)N[C@@H](C)C(=O)N[C@@H](C)C(=O)N[C@@H](CCCCN)C(=O)N[C@@H](CCCCNC(=O)CCC(=O)OC1CCC2(C)C(=CCC3C2CCC2(C)C(C(C)CCCC(C)C)CCC32)C1)C(N)=O)C(C)C)[C@@H](C)CC)[C@@H](C)CC)C(C)C (some centres unmarked) [Positive polypeptide 4, reference compound] (Ac-IEQVNKKIEQSLKFIEKSDKLLENVNKGKCEAAAKK(X1)-NH2) | – | – | 0.19 µM | 4.62 µM |
| Ac-SLEQVNKINEKINKISQSLKKIEESDKKSDEVNAGLEAAAKK-NH2 [Compound 48] | > 8 µM | > 8 µM | – | – |
| CC[C@H](C)[C@H](NC(=O)[C@H](CO)NC(C)=O)C(=O)N[C@@H](CO)C(=O)N[C@@H](CCC(N)=O)C(=O)N[C@H](C(=O)N[C@@H](CC(N)=O)C(=O)N[C@@H](CCC(=O)O)C(=O)N[C@@H](CCCCN)C(=O)N[C@H](C(=O)N[C@@H](CC(N)=O)C(=O)N[C@@H](CCC(=O)O)C(=O)N[C@H](C(=O)N[C@@H](CCC(N)=O)C(=O)N[C@@H](CO)C(=O)N[C@@H](CC(C)C)C(=O)N[C@@H](CCC(=O)O)C(=O)N[C@@H](CCC(=O)O)C(=O)N[C@@H](CCCCN)C(=O)N[C@@H](CO)C(=O)N[C@@H](CC(=O)O)C(=O)N[C@@H](CCCCN)C(=O)N[C@@H](CC(C)C)C(=O)N[C@@H](CC(C)C)C(=O)N[C@@H](CCCCN)C(=O)N[C@@H](CO)C(=O)N[C@@H](CCC(=O)O)C(=O)N[C@@H](C)C(=O)N[C@@H](C)C(=O)N[C@@H](C)C(=O)N[C@@H](CCCCN)C(=O)N[C@@H](CCCCNC(=O)CCC(=O)OC1CCC2(C)C(=CCC3C2CCC2(C)C(C(C)CCCC(C)C)CCC32)C1)C(N)=O)[C@@H](C)CC)[C@@H](C)CC)C(C)C (some centres unmarked) [Compound 35] (Ac-SISQVNEKINEIQSLEEKSDKLLKSEAAAKK(X1)-NH2) | – | – | 5.53 µM | 5.1 µM |
| CC[C@H](C)[C@H](NC(=O)[C@H](CCCCN)NC(=O)[C@H](CCCCN)NC(=O)[C@H](CC(C)C)NC(=O)[C@H](CO)NC(=O)[C@H](CCC(=O)O)NC(=O)[C@H](CCC(=O)O)NC(=O)[C@@H](NC(=O)[C@H](CCCCN)NC(=O)[C@H](CCCCN)NC(=O)[C@H](CC(N)=O)NC(=O)[C@@H](NC(=O)[C@H](CCC(=O)O)NC(=O)[C@H](CCC(=O)O)NC(=O)[C@@H](NC(=O)[C@H](CCCCN)NC(=O)[C@H](CCCCN)NC(=O)[C@H](CCCCN)NC(=O)[C@H](CC(=O)O)NC(=O)[C@H](Cc1ccccc1)NC(=O)[C@H](CCC(=O)O)NC(=O)C(CC(=O)O)NC(C)=O)[C@@H](C)CC)C(C)C)[C@@H](C)CC)C(=O)N[C@@H](CCC(=O)O)C(=O)N[C@@H](CCC(=O)O)C(=O)N[C@@H](CO)C(=O)N[C@@H](CC(=O)O)C(=O)N[C@@H](CCCCN)C(=O)N[C@@H](CCCCN)C(=O)N[C@@H](CC(C)C)C(=O)N[C@@H](CCC(=O)O)C(=O)N[C@@H](CCC(=O)O)C(=O)N[C@H](C(=O)NCC(=O)N[C@@H](CO)C(=O)NCC(=O)N[C@@H](CO)C(=O)NCC(=O)N[C@@H](CCCCNC(=O)CCC(=O)O[C@H]1CC[C@@]2(C)C(=CC[C@H]3[C@@H]4CC[C@H]([C@H](C)CCCC(C)C)[C@@]4(C)CC[C@@H]32)C1)C(N)=O)C(C)C (some centres unmarked) [Compound 18] (Ac-[ξD]EFDKKKIEEVNKKIEESLKKIEESDKKLEEVGSGSGK(Succinyl(4-O-cholesteryl))-NH2) | – | – | – | 6.4 µM |
| CC[C@H](C)[C@H](NC(=O)[C@H](CCCCN)NC(=O)[C@H](CCCCN)NC(=O)[C@H](CC(C)C)NC(=O)[C@H](CO)NC(=O)[C@H](CCC(=O)O)NC(=O)[C@H](CCC(=O)O)NC(=O)[C@@H](NC(=O)[C@H](CCCCN)NC(=O)[C@H](CCCCN)NC(=O)[C@H](CC(N)=O)NC(=O)[C@@H](NC(=O)[C@H](CCC(=O)O)NC(=O)[C@H](CCC(=O)O)NC(=O)[C@@H](NC(=O)[C@H](CCCCN)NC(=O)[C@H](CCCCN)NC(=O)[C@H](CCCCN)NC(=O)[C@H](CC(=O)O)NC(=O)[C@H](Cc1ccccc1)NC(=O)[C@H](CCC(=O)O)NC(=O)[C@H](CC(=O)O)NC(C)=O)[C@@H](C)CC)C(C)C)[C@@H](C)CC)C(=O)N[C@@H](CCC(=O)O)C(=O)N[C@@H](CCC(=O)O)C(=O)N[C@@H](CO)C(=O)N[C@@H](CC(=O)O)C(=O)N[C@@H](CCCCN)C(=O)N[C@@H](CCCCN)C(=O)N[C@@H](CC(C)C)C(=O)N[C@@H](CCC(=O)O)C(=O)N[C@@H](CCC(=O)O)C(=O)N[C@H](C(=O)N[C@@H](CCC(=O)O)C(=O)N[C@@H](C)C(=O)N[C@@H](C)C(=O)N[C@@H](C)C(=O)N[C@@H](CCCCN)C(=O)N[C@@H](CCCCNC(=O)CCC(=O)O[C@H]1CC[C@@]2(C)C(=CC[C@H]3[C@@H]4CC[C@H]([C@H](C)CCCC(C)C)[C@@]4(C)CC[C@@H]32)C1)C(N)=O)C(C)C [Compound 22] (Ac-DEFDKKKIEEVNKKIEESLKKIEESDKKLEEVEAAAKK(Succinyl(4-O-cholesteryl))-NH2) | – | – | – | 3.7 µM |
